This note sets out measurements from the NIST ThermoML archive (doi:10.1016/j.jct.2016.01.017).

This series can be described thus: activity coefficient (dimensionless); of the first substance listed, at infinite dilution; xn = mol fraction of the nth substance listed. To be noted: 100 kPa, Liquid, Chromatography, x1 = 0.

Each structure is given as a SMILES string. Numbers after ± are expanded uncertainties.

`Cc1ccccc1` [toluene] + CCCC[n+]1ccc(C#N)cc1.O=S(=O)([N-]S(=O)(=O)C(F)(F)F)C(F)(F)F: the activity coefficient worked out at 1.46 ± 0.12 (308.15 K); 1.54 ± 0.13 (318.15 K); 1.62 ± 0.14 (328.15 K); 1.7 ± 0.14 (338.15 K); 1.78 ± 0.15 (348.15 K); 1.86 ± 0.16 (358.15 K). Further, where the note is “368.15 K”, the activity coefficient turned out to be 1.94 ± 0.17.
With `C1CCCCCCC1` [cyclooctane] + CCCC[n+]1ccc(C#N)cc1.O=S(=O)([N-]S(=O)(=O)C(F)(F)F)C(F)(F)F, the activity coefficient (308.15 K) came out at 26.5 ± 2.3; the activity coefficient (318.15 K) was found to be 25.2 ± 2.2; the activity coefficient (328.15 K) was determined as 24.1 ± 2.1; the activity coefficient (338.15 K) was 23.2 ± 2; the activity coefficient (348.15 K) was found to be 22.4 ± 1.9; the activity coefficient (358.15 K) came to 21.6 ± 1.9. For the same molecule, where the note is “368.15 K”, the activity coefficient was 20.9 ± 1.8.
Consider `CCOCC` [diethyl ether] + CCCC[n+]1ccc(C#N)cc1.O=S(=O)([N-]S(=O)(=O)C(F)(F)F)C(F)(F)F, for which the activity coefficient is, setting by setting: (308.15 K) 3.17 ± 0.27; (318.15 K) 3.24 ± 0.28; (328.15 K) 3.31 ± 0.29; (338.15 K) 3.37 ± 0.29; (348.15 K) 3.44 ± 0.3; (358.15 K) 3.5 ± 0.3. Besides, the activity coefficient (368.15 K) was 3.56 ± 0.31.
Regarding `CC(C)(C)O` [2-methylpropan-2-ol] + CCCC[n+]1ccc(C#N)cc1.O=S(=O)([N-]S(=O)(=O)C(F)(F)F)C(F)(F)F, the activity coefficient reads like this: (308.15 K) 2.28 ± 0.2; (318.15 K) 2.14 ± 0.18; (328.15 K) 2.01 ± 0.17; (338.15 K) 1.9 ± 0.16; (348.15 K) 1.8 ± 0.15; (358.15 K) 1.71 ± 0.15. Besides, the activity coefficient (368.15 K) was found to be 1.63 ± 0.14.
With `CC(C)OC(C)C` [diisopropyl ether] + CCCC[n+]1ccc(C#N)cc1.O=S(=O)([N-]S(=O)(=O)C(F)(F)F)C(F)(F)F, the activity coefficient reads like this: (308.15 K) 9.7 ± 0.84; (318.15 K) 9.65 ± 0.83; (328.15 K) 9.59 ± 0.83; (338.15 K) 9.57 ± 0.83; (348.15 K) 9.53 ± 0.82; (358.15 K) 9.48 ± 0.82. Besides, for the setting “368.15 K”, the activity coefficient amounted to 9.45 ± 0.82.
With `CCCc1ccccc1` [propylbenzene] + CCCC[n+]1ccc(C#N)cc1.O=S(=O)([N-]S(=O)(=O)C(F)(F)F)C(F)(F)F, the activity coefficient is, setting by setting: (308.15 K) 3.8 ± 0.33; (318.15 K) 3.94 ± 0.34; (328.15 K) 4.07 ± 0.35; (338.15 K) 4.21 ± 0.36; (348.15 K) 4.33 ± 0.37; (358.15 K) 4.45 ± 0.38. Moreover, where the note is “368.15 K”, the activity coefficient amounted to 4.58 ± 0.4.
Turning to `C1CCCCCC1` [cycloheptane] + CCCC[n+]1ccc(C#N)cc1.O=S(=O)([N-]S(=O)(=O)C(F)(F)F)C(F)(F)F, the activity coefficient was 22.3 ± 1.9 (308.15 K); 20.6 ± 1.8 (318.15 K); 19.1 ± 1.7 (328.15 K); 17.8 ± 1.5 (338.15 K); 16.7 ± 1.4 (348.15 K); 15.6 ± 1.3 (358.15 K). Under “368.15 K”, the activity coefficient came out at 14.8 ± 1.3.
For `C=Cc1ccccc1` [styrene] + CCCC[n+]1ccc(C#N)cc1.O=S(=O)([N-]S(=O)(=O)C(F)(F)F)C(F)(F)F, the activity coefficient turned out to be 1.28 ± 0.11 (308.15 K); 1.36 ± 0.11 (318.15 K); 1.44 ± 0.12 (328.15 K); 1.52 ± 0.13 (338.15 K); 1.6 ± 0.14 (348.15 K); 1.67 ± 0.14 (358.15 K). In addition, the activity coefficient (368.15 K) turned out to be 1.75 ± 0.15.
With `CCC(C)O` (centres undefined) [butan-2-ol] + CCCC[n+]1ccc(C#N)cc1.O=S(=O)([N-]S(=O)(=O)C(F)(F)F)C(F)(F)F, the activity coefficient (308.15 K) was determined as 2.69 ± 0.23; the activity coefficient (318.15 K) came to 2.5 ± 0.2; the activity coefficient (328.15 K) was determined as 2.33 ± 0.2; the activity coefficient (338.15 K) was found to be 2.18 ± 0.19; the activity coefficient (348.15 K) turned out to be 2.06 ± 0.18; the activity coefficient (358.15 K) stood at 1.94 ± 0.17. Further, the activity coefficient (368.15 K) amounted to 1.84 ± 0.16.
For `CC(C)CO` [2-methyl-1-propanol] + CCCC[n+]1ccc(C#N)cc1.O=S(=O)([N-]S(=O)(=O)C(F)(F)F)C(F)(F)F, the activity coefficient runs as follows: (308.15 K) 3.2 ± 0.28; (318.15 K) 2.93 ± 0.25; (328.15 K) 2.7 ± 0.23; (338.15 K) 2.5 ± 0.22; (348.15 K) 2.32 ± 0.2; (358.15 K) 2.18 ± 0.19. In addition, the activity coefficient (368.15 K) is 2.04 ± 0.18.
In the case of `C1COCCO1` [1,4-dioxane] + CCCC[n+]1ccc(C#N)cc1.O=S(=O)([N-]S(=O)(=O)C(F)(F)F)C(F)(F)F, the activity coefficient came out at 0.419 ± 0.041 (308.15 K); 0.461 ± 0.044 (318.15 K); 0.502 ± 0.046 (328.15 K); 0.544 ± 0.049 (338.15 K); 0.587 ± 0.052 (348.15 K); 0.631 ± 0.055 (358.15 K). Moreover, the activity coefficient (368.15 K) came to 0.676 ± 0.058.
As to `CCc1ccccc1` [ethylbenzene] + CCCC[n+]1ccc(C#N)cc1.O=S(=O)([N-]S(=O)(=O)C(F)(F)F)C(F)(F)F, the activity coefficient (308.15 K) worked out at 2.49 ± 0.21; the activity coefficient (318.15 K) worked out at 2.58 ± 0.22; the activity coefficient (328.15 K) is 2.67 ± 0.23; the activity coefficient (338.15 K) was 2.77 ± 0.24; the activity coefficient (348.15 K) is 2.85 ± 0.25; the activity coefficient (358.15 K) is 2.93 ± 0.25. Where the note is “368.15 K”, the activity coefficient was 3.03 ± 0.26.
In the case of `Cc1ccccc1C` [1,2-dimethylbenzene] + CCCC[n+]1ccc(C#N)cc1.O=S(=O)([N-]S(=O)(=O)C(F)(F)F)C(F)(F)F, the activity coefficient runs as follows: (308.15 K) 1.79 ± 0.15; (318.15 K) 1.89 ± 0.16; (328.15 K) 2 ± 0.17; (338.15 K) 2.1 ± 0.18; (348.15 K) 2.21 ± 0.19; (358.15 K) 2.3 ± 0.2. Also, the activity coefficient (368.15 K) was found to be 2.39 ± 0.21.
On to `CCC[N+](=O)[O-]` [1-nitropropane] + CCCC[n+]1ccc(C#N)cc1.O=S(=O)([N-]S(=O)(=O)C(F)(F)F)C(F)(F)F, for which the activity coefficient reads like this: (308.15 K) 0.74 ± 0.063; (318.15 K) 0.768 ± 0.065; (328.15 K) 0.796 ± 0.067; (338.15 K) 0.824 ± 0.069; (348.15 K) 0.851 ± 0.071; (358.15 K) 0.877 ± 0.073. Further, under “368.15 K”, the activity coefficient came to 0.904 ± 0.075.
Take `CCCCCC` [hexane] + CCCC[n+]1ccc(C#N)cc1.O=S(=O)([N-]S(=O)(=O)C(F)(F)F)C(F)(F)F: the activity coefficient turned out to be 33 ± 2.9 (308.15 K); 30.7 ± 2.7 (318.15 K); 28.8 ± 2.5 (328.15 K); 27.1 ± 2.3 (338.15 K); 25.6 ± 2.2 (348.15 K); 24.2 ± 2.1 (358.15 K). For the setting “368.15 K”, the activity coefficient was 23.1 ± 2.
On to `Cc1cccc(C)c1` [1,3-dimethylbenzene] + CCCC[n+]1ccc(C#N)cc1.O=S(=O)([N-]S(=O)(=O)C(F)(F)F)C(F)(F)F, for which the activity coefficient runs as follows: (308.15 K) 2.13 ± 0.18; (318.15 K) 2.25 ± 0.19; (328.15 K) 2.37 ± 0.2; (338.15 K) 2.49 ± 0.21; (348.15 K) 2.6 ± 0.22; (358.15 K) 2.71 ± 0.23. The activity coefficient (368.15 K) worked out at 2.83 ± 0.24.
Turning to `C#CCCCCCC` [1-octyne] + CCCC[n+]1ccc(C#N)cc1.O=S(=O)([N-]S(=O)(=O)C(F)(F)F)C(F)(F)F, the activity coefficient is, setting by setting: (308.15 K) 10.1 ± 0.9; (318.15 K) 10.2 ± 0.9; (328.15 K) 10.3 ± 0.9; (338.15 K) 10.3 ± 0.9; (348.15 K) 10.4 ± 0.9; (358.15 K) 10.4 ± 0.9. Moreover, the activity coefficient (368.15 K) was found to be 10.5 ± 0.9.
For `C=CCCCCCC` [oct-1-ene] + CCCC[n+]1ccc(C#N)cc1.O=S(=O)([N-]S(=O)(=O)C(F)(F)F)C(F)(F)F, the activity coefficient is, setting by setting: (308.15 K) 31.7 ± 2.7; (318.15 K) 30.1 ± 2.6; (328.15 K) 28.6 ± 2.5; (338.15 K) 27.3 ± 2.4; (348.15 K) 26.3 ± 2.3; (358.15 K) 25.3 ± 2.2. In addition, under “368.15 K”, the activity coefficient amounted to 24.3 ± 2.1.
As to `C#CCCCCC` [1-heptyne] + CCCC[n+]1ccc(C#N)cc1.O=S(=O)([N-]S(=O)(=O)C(F)(F)F)C(F)(F)F, the activity coefficient reads like this: (308.15 K) 6.92 ± 0.6; (318.15 K) 7.02 ± 0.61; (328.15 K) 7.11 ± 0.61; (338.15 K) 7.21 ± 0.62; (348.15 K) 7.3 ± 0.63; (358.15 K) 7.39 ± 0.64. The activity coefficient (368.15 K) came to 7.48 ± 0.65.
In the case of `CCCCO` [butan-1-ol] + CCCC[n+]1ccc(C#N)cc1.O=S(=O)([N-]S(=O)(=O)C(F)(F)F)C(F)(F)F, the activity coefficient reads like this: (308.15 K) 3.19 ± 0.28; (318.15 K) 2.94 ± 0.25; (328.15 K) 2.74 ± 0.24; (338.15 K) 2.56 ± 0.22; (348.15 K) 2.41 ± 0.21; (358.15 K) 2.28 ± 0.2. Moreover, where the note is “368.15 K”, the activity coefficient was 2.15 ± 0.19.
As to `CCCC=O` [butanal] + CCCC[n+]1ccc(C#N)cc1.O=S(=O)([N-]S(=O)(=O)C(F)(F)F)C(F)(F)F, the activity coefficient (308.15 K) worked out at 0.7 ± 0.06; the activity coefficient (318.15 K) came to 0.738 ± 0.062; the activity coefficient (328.15 K) worked out at 0.773 ± 0.065; the activity coefficient (338.15 K) stood at 0.811 ± 0.068; the activity coefficient (348.15 K) was found to be 0.848 ± 0.071; the activity coefficient (358.15 K) was determined as 0.884 ± 0.073. Also, where the note is “368.15 K”, the activity coefficient came out at 0.917 ± 0.076.
In the case of `c1ccsc1` [thiophene] + CCCC[n+]1ccc(C#N)cc1.O=S(=O)([N-]S(=O)(=O)C(F)(F)F)C(F)(F)F, the activity coefficient (308.15 K) amounted to 0.916 ± 0.076; the activity coefficient (318.15 K) was 0.96 ± 0.08; the activity coefficient (328.15 K) turned out to be 1 ± 0.08; the activity coefficient (338.15 K) is 1.05 ± 0.09; the activity coefficient (348.15 K) turned out to be 1.1 ± 0.09; the activity coefficient (358.15 K) was determined as 1.14 ± 0.09. Further, the activity coefficient (368.15 K) came to 1.18 ± 0.1.
